Test results taken from patent US20180071284A1, “PREVENTING OR TREATING VIRAL INFECTION BY INHIBITION OF THE HISTONE METHYLTRANSFERASE EZH1 OR EZH2” (The United States of America, as represented by the …, priority 2015, published 2018).
Entries after “also recorded” stand apart in the source; their conditions may differ.

Experiments:
[1] = system: HSV-1; experiment: Spread of HSV infection in HFF cells (UL29 staining); format: cell-based, herpes simplex virus 1 (HSV-1); conditions: HSV-1 MOI 0.01 for 8.5-hrs, then treated for 12.5-hrs (30 μM)
Experimental: HFF cells were mock or infected with HSV-1 (MOI 0.01) for 8.5-hrs to allow one round of the viral replication program. The HFF cells were then treated with EZH1/2 inhibitor (compound 1 or compound 4 at 30 μM), viral DNA polymerase inhibitor (ACV at 100 μM), or JMJD3 inhibitor (ML324 at 50 μM) for an additional 12.5-hrs. Cells were paraformaldehyde fixed, permeabilized, and stained for the viral E gene UL29 and actin. The viral E protein UL29 was used as a marker for the spread of viral infection.
HFF cells were mock or infected with HSV-1 (MOI 0.01) for 8.5-hrs to allow one round of the viral replication program. HFF cells were then treated with EZH1/2 (compound 1, compound 4), viral DNA polymerase (ACV), or JMJD3 (ML324) inhibitors for additional 12.5-hrs. Cells were paraformaldehyde fixed, permeabilized, and stained for the viral E gene UL29 and actin (Phalloidin). The viral E protein UL29 was used as a marker for the spread of viral infection.

[2] = system: IFN-α, TNF-α, IL-8 mRNAs; experiment: Cellular innate interferon signaling mRNAs in mock or HSV-1 infected HFF cells; format: cell-based, human; conditions: 30 μM, 5-hrs
Experimental: HFF cells were treated with EZH1/2 catalytic inhibitor compound 4 (30 μM) or DMSO for 5-hrs. HFF cells were then mock or infected with HSV-1 (2.0 PFU per cell) for 1.5-hrs in the presence of inhibitor or DMSO. The levels of HSV viral IE (ICP4 and ICP27), control (SP1), and cellular innate interferon signaling (IFN-α, TNF-α, IL-8) mRNAs are expressed as absolute levels (absolute copies).

[3] = system: HSV-1; experiment: UL29+ single neurons and neuron clusters in explanted trigeminal ganglia; format: cell-based, herpes simplex virus 1 (HSV-1); conditions: explant 48-hrs; compound 1 35 μM, compound 4 30 μM, ACV 100 μM, ML324 50 μM
Excerpt: Trigeminal ganglia were fixed in paraformaldehyde and tissue sections were […] with anti-UL29 and DAPI. The HSV E gene UL29 (DNA single strand binding replication protein) was used a marker for viral reactivation. Tissue sections were scored for UL29+ cell clusters (clusters indicate viral spread from the primary neuron to surrounding cells) and for individual neurons representing the primary reactivation event (single) (FIGS. 18 and 19).
Trigeminal ganglia were fixed in paraformaldehyde and tissue sections were costained with anti-UL29 and DAPI. The HSV E gene UL29 (DNA single strand binding replication protein) was used a marker for viral reactivation. Tissue sections were scored for UL29+ cell clusters (clusters indicate viral spread from the primary neuron to surrounding cells) and for individual neurons representing the primary reactivation event (single) (FIG. 25).

[4] = system: HFF cells; experiment: Microarray analysis of HFF cells; format: cell-based, human; conditions: 30 μM, 4-hrs
Excerpt: -[…] (2013), incorporated herein by reference). In normal fibroblast cells (as opposed to established cell lines or transformed cells lines), 41 genes are co-regulated by IFN (16%) and compound 4 treatment alone.

[5] = system: cytokines, chemokines, and adhesion proteins involved in innate signaling; experiment: RNA-seq analysis of explanted trigeminal ganglia from HSV-1 latently infected mice; format: cell-based; conditions: 30 μM, 12 hrs
Experimental: Trigeminal ganglia from HSV-1 latently infected mice were explanted in media with control DMSO (vehicle) or in media with compound 4 (30 μM) for 12 hrs. Total cellular RNA was isolated and RNA-seq analysis identified the induction of cytokines, chemokines, and adhesion proteins involved in innate signaling and recruitment of immune effector cells. The results are in Table 1 below, where changes in gene expression are expressed as ratios of compound 4 relative to vehicle.

[6] = system: HSV-1; experiment: Removal of inhibitors prior to HSV-1 infection of HFF cells (mRNA levels); format: cell-based, herpes simplex virus 1 (HSV-1); conditions: washed, then infected
Experimental: HFF cells were treated with inhibitors targeting the catalytic SET domain (compound 1, 35 μM: EZH2; compound 2, 15 μM: EZH2 and EZH1; compound 4, 30 μM: EZH2), EED-EZH2 and EED-EZH1 (compound 3, 30 μM), or DMSO (control) for 5-hrs. Cells were then washed with phosphate buffered saline (PBS) and replaced with media with no inhibitors for the indicated time in FIGS. 21-24 prior to infection with HSV-1 (2.0 PFU per cell) for 1.5-hrs in the absence of inhibitors.

[7] = system: neutrophil (Ly6G); experiment: Neutrophil recruitment to the site of HSV infection in mouse eyes; format: in vivo, Balb/c mice; conditions: topical to the eyes, 30 μM twice daily, day 5
Experimental: The eyes of Balb/c mice were scarified and mock or infected with 2×10^5 pfu of HSV-1 (strain F) per eye. Beginning on day 0.5, the eyes of mice were treated either with EZH1/2 inhibitor (compound 4: 30 μM), acyclovir (ACV: 30 μM), or vehicle control twice daily. On day 5, the eyes were fixed in paraformaldehyde and tissue sections were co-stained with anti-HSV-1, anti-Ly6G (neutrophil), and DAPI.

[8] = system: Zika virus (ZIKV); experiment: Zika virus infection of HFF cells (focus forming units, percent infected cells); format: cell-based
Experimental: FIG. 32 presents line graphs that show the number and size of Focus Forming Units (FFU) after HFF cells were treated with the indicated concentrations of compound 4 for 5 h and infected with ZIKV for 40 h, in accordance with embodiments of the invention.
HFF cells were treated with compound 4 and infected with Zika virus (ZIKV), a member of the flavivirus family.
To determine if pretreatment was required to suppress ZIKV infection, cells were pretreated with compound 4 or were treated 3 h post ZIKV adsorption. While pretreatment was modestly more efficient at suppression of infection at lower compound 4 concentrations, it was not essential to effect significant suppression (FIG. 34).

[9] = normal fibroblast cells data set
[10] = HFF cells treated 5 h, infected with ZIKV for 40 h, dose-dependent

## CC[C@H](C)n1cc(C)c2c(C(=O)NCc3c(C)cc(C)[nH]c3=O)cc(-c3ccc(N4CCNCC4)nc3)cc21 [compound 4, GSK126]
[1]
  spread of HSV infection to adjacent cells (UL29 marker): block the spread of HSV to adjacent cells; also recorded: block the spread of HSV infection
[2]
  expression of innate antiviral signaling molecules IFN-α, TNF-α, and IL-8: induces the expression
[3]
  primary reactivation (UL29+ single neurons): reduced
  secondary spread of HSV (UL29+ neuron clusters): reduced
[4]
  genes induced >2 fold that are co-regulated by IFN (Interferome): 212 genes
  genes induced greater than 2 fold relative to vehicle (microarray): 252 genes
  pro-inflammatory pathways induced (Ingenuity Pathway Analysis): IL6, IL17, TLR, HMGB1, and JAK/STAT signaling pathways
  share of genes induced >2 fold that are co-regulated by IFN (Interferome): 84%
[4]; [9]
  genes co-regulated by IFN in normal fibroblast cells: 41 genes
  share of genes co-regulated by IFN in normal fibroblast cells: 16%
[5]
  genes induced >2 fold that are co-regulated by IFN (Interferome), ganglia explants: 33 genes
  share of genes induced >2 fold that are co-regulated by IFN (Interferome), ganglia explants: 69%
[5]; Gene CCL2 (Chemokines)
  Fold Change (Cmpd. 4 relative to vehicle): 2.23
[5]; Gene CXCL1 (Chemokines)
  Fold Change (Cmpd. 4 relative to vehicle): 6.30
[5]; Gene CXCL2 (Chemokines)
  Fold Change (Cmpd. 4 relative to vehicle): 5.11
[5]; Gene CXCL3 (Chemokines)
  Fold Change (Cmpd. 4 relative to vehicle): 2.68
[5]; Gene CXCL5 (Chemokines)
  Fold Change (Cmpd. 4 relative to vehicle): 3.78
[5]; Gene G-CSF (Cytokines)
  Fold Change (Cmpd. 4 relative to vehicle): 6.16
[5]; Gene GM-CSF (Cytokines)
  Fold Change (Cmpd. 4 relative to vehicle): 5.51
[5]; Gene ICAM1 (Adhesion)
  Fold Change (Cmpd. 4 relative to vehicle): 2.51
[5]; Gene IL6 (Cytokines)
  Fold Change (Cmpd. 4 relative to vehicle): 3.61
[5]; Gene IL11 (Cytokines)
  Fold Change (Cmpd. 4 relative to vehicle): 2.16
[5]; Gene LIF (Cytokines)
  Fold Change (Cmpd. 4 relative to vehicle): 2.66
[5]; Gene SELE (Adhesion)
  Fold Change (Cmpd. 4 relative to vehicle): 3.86
[5]; Gene SELP (Adhesion)
  Fold Change (Cmpd. 4 relative to vehicle): 3.16
[5]; Gene VEGF-c (Cytokines)
  Fold Change (Cmpd. 4 relative to vehicle): 2.10
[6]; 5-hrs treatment (compound 1 35 μM, 2 15 μM, 3 30 μM, 4 30 μM)
  HSV IE expression after removal of compound prior to infection: recovery of HSV IE expression
[6]; 5-hrs treatment
  IL6 stimulation after removal of compound prior to infection: decrease in IL6 stimulation
[7]
  neutrophil recruitment to the site of HSV infection: Recruitment/infiltration of neutrophils
[8]; 1 and 2 dpi
  number of ZIKV infected cells (intracellular staining for ZIKV antigens): reduction
[8]; [10]
  number of ZIKV focus forming units (plaques): significantly reduced
  size of ZIKV focus forming units (plaques): significantly reduced
[8]; pretreated vs treated 3 h post ZIKV adsorption
  requirement of pretreatment for suppression of ZIKV infection: not essential
